2 compounds from US6814958B1, “Food compositions, compositions for oral cavity and medicinal compositions for preventing or treating periodontosis and method for preventing or treating periodontosis” (priority 1998, dated 2004) can be followed below.

Assay [1] addresses T1, gelatinase derived from HGF cells (Homo sapiens, UniProt P08253).
T1 construct: endogenous in cells; host or cells: human gingiva fibroblasts (HGF), serum-free conditioned medium; purified on gelatin Sepharose 4B
T1 sequence (P08253 110-660): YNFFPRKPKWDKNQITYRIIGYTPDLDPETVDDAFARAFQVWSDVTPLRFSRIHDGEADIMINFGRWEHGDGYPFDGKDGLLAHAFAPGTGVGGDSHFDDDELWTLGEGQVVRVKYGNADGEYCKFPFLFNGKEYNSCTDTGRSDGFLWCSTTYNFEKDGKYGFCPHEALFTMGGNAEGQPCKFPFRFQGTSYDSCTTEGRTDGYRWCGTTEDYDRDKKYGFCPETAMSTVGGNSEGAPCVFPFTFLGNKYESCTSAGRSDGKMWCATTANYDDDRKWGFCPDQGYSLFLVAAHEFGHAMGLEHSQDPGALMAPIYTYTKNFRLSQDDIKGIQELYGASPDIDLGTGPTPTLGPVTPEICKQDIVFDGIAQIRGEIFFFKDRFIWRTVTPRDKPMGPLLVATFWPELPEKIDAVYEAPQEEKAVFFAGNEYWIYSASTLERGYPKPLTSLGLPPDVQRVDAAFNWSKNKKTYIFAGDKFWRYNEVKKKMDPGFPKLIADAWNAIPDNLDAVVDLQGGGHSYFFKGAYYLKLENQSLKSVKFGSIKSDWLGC
Kind of assay: Inhibitory effect on gelatinase derived from HGF cells (FITC-labelled type IV collagen). It counts as biochemical. The following applies: 42° C; read-out: 50% inhibiting concentration, Gelatinase HGF (converted).
Description: The measurement method was the same as the above method for measuring the inhibitory activity on the collagenase (2-1). However, the reaction temperature was set at 42° C. The measurement was also carried out on tetracycline by the same method.

Assay [2] addresses T2, collagenase derived from human gingiva fibroblasts (HGF cell) (Homo sapiens, UniProt P03956).
T2 construct: endogenous in cells; host or cells: human gingiva fibroblasts (HGF), serum-free conditioned medium; purified on CM Sepharose and zinc chelating Sepharose
T2 sequence (P03956 100-469): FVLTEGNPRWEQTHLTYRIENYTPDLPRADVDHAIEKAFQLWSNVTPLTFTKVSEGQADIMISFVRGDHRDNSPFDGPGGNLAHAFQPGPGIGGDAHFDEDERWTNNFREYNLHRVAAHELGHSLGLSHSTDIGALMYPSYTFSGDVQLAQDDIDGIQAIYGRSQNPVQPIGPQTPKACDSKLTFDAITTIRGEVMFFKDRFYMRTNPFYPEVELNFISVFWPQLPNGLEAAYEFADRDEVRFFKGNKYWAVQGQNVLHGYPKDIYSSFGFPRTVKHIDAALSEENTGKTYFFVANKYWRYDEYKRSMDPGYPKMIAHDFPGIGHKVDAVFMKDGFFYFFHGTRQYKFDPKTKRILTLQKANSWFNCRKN
Nature of the assay: Inhibitory effect on collagenase derived from HGF cells (FITC-labelled type I collagen, method of Nagai et al.). It is filed as biochemical. The note with it: 37° C, 4 hours; control free of test substance = 100%; read-out: 50% inhibiting concentration, Collagenase HGF (converted).
Description: The collagenase derived from human gingiva fibroblasts (hereinafter abbreviated as “HGF cell”) for use in this test was prepared in the following manner: human procollagenase which was produced in Dulbecco modification MEM culture medium of non-blood serum using the HGF cells was refined using CM Sepharose™ (manufactured by Pharmacia Company) and zinc chelating Sepharose™ (manufactured by Pharmacia Company). The resulting substance was dissolved in a buffer solution and then was activated. The activation was carried out by incubating using aminophenyl acetic acid mercury (manufactured by Sigma Co.) as an activator at 37° C. for 4 hours.
The measurement of the inhibitory effects on collagenase of the extract containing the natural polyphenol of the above 1-1 was conducted by determining the collagenase activity of the extract. […] Specifically, 40 μl of activated human collagenase (2U/ml), 50 μg of the matrix and a test substance which was dissolved in 40 μl of an assay buffer were mixed. The mixture was allowed to react at 37° C for 4 hours. The collagenase activity of the control (free of the test substance) was regarded as 100%.

The next assay deals with HGF cells and HGK cells. The note with it: of the medium with no nicotine added; 0.05% nicotine. Here is the method:
HGF cells and HGK cells were inoculated into separate 96-well plates for tissue culture in an amount of 5,000 cells/well. These HGF cells and HGK cells were incubated at 37° C. for 1 day. Then, the incubated HGF cells were diluted in a Dulbecco modification MEM culture medium containing the test substance, 0.05% nicotine and 1% fetal bovine serum, while the incubated HGK cells were diluted in a culture medium for epithelium containing the test substance, 0.05% nicotine and 1% fetal bovine serum. The cells were incubated on the media for 5 days, and the cell proliferation activities of the cells were observed. Meanwhile, as a control was used the culture medium to which only nicotine was added. After the test substances were cultivated for 5 days, the cells were fixed in a 10% formalin solution and staining in crystal violet. The absorbance of the resulting cells at 590 nm was determined to calculate the population of the cells. The relative proportion of the test substances when the value of the control (culture medium to which only nicotine was added) was 100% was obtained.

The test system of assay [3] is collagenase production by human gingiva fibroblasts and human gingival epithelium cells. The note with it: of the medium with no nicotine added; 0.05% nicotine. The method, then:
Measurements were carried out by the method described in Test Example 2. However, to the culture medium was added 0.05% nicotine, together with the test substance and 1% fetal bovine serum. The collagenase activity of the culture medium supernatant of the control (the culture medium containing only nicotine) was regarded as 100%, and the relative proportion of the collagenase activity when the test substances were added was determined.

Turning to `CN(C)[C@@H]1C(O)=C(C(N)=O)C(=O)[C@@]2(O)C(O)=C3C(=O)c4c(O)cccc4[C@@](C)(O)[C@H]3C[C@@H]12` [Tetracycline], the IC50 is 19.6 µM in assay [1] and 5.63 µM in assay [2].

Turning to `CN1CCCC1c1cccnc1` (stereo not shown) [nicotine], the “reduction of cell proliferation by addition of nicotine” value with HGF cells and HGK cells was 52%. For the same compound, the “increase rate of collagenase production by addition of nicotine” value in assay [3] is 380%.
